Experiments:
[1] = system: K-Ras G12C (NCI-H358 cells); test: Potency assay: pERK (AlphaLISA SureFire or In-Cell Western); type: cell-based; details: Homo sapiens, NCI-H358; H358 KRAS G12C; read-out: pERK EC50
Procedure, shortened: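 NCI-H358 cells plated overnight, then treated 4 h at 37 °C with 10-point 3-fold DMSO dilutions (10 mM top stock), in duplicate. pERK1/2 read by AlphaLISA SureFire Ultra lysate assay or by In-Cell Western with DRAQ5 DNA stain. IC50 from 4-parameter sigmoidal fit of signal vs log concentration.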

KRAS Q61H = KRAS Q61H (Homo sapiens, UniProt P01116+P62937, Q61H); test: Disruption of BRAF RBD interaction with Ras (FRET / MOA assay, with Cyclophilin A); type: biochemical; details: KRAS Q61H; read-out: KRAS Q61H FRET data IC50
Chain of KRAS Q61H (P01116 1-169 isoform P01116-2 Q61H limits assumed): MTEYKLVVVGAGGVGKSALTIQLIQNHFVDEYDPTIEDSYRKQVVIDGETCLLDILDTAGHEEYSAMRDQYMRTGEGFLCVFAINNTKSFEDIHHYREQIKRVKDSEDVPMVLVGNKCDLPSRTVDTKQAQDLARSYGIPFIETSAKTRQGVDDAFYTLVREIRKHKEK
Chain of KRAS Q61H (P62937 whole entry): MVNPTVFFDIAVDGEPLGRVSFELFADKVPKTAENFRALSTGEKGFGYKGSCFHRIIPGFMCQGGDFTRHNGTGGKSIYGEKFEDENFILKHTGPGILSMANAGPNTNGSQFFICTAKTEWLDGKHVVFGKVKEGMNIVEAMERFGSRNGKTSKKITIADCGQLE
Procedure, shortened: (§1)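 TR-FRET in 25 mM HEPES pH 7.3, 100 mM NaCl, 5 mM MgCl2, 0.1% BSA: 25 μM Cyclophilin A, 12.5 nM His6-Ras-GMPPNP, 50 nM GST-BRAF RBD with compound (10-point 3-fold series from 30 μM), 3 h at 25° C. Anti-His Eu/anti-GST APC added, 1.5 h more; IC50 from decreased FRET ratio versus DMSO.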

NRAS Q61K = NRAS Q61K (Homo sapiens, UniProt P01111+P62937, Q61K); test: as above; type: biochemical; details: NRAS Q61K; read-out: NRAS Q61K FRET data IC50
Chain of NRAS Q61K (P01111 whole entry Q61K): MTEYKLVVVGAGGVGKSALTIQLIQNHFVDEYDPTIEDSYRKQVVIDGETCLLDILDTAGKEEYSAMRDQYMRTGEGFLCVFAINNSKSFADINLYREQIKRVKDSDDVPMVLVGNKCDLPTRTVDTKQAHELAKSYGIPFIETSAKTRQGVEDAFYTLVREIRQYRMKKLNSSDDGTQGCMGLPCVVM
Chain of NRAS Q61K (P62937 whole entry): as the sequence (P62937 whole entry) above
Procedure, shortened: as §1

NRAS Q61R = NRAS Q61R (Homo sapiens, UniProt P01111+P62937, Q61R); test: as above; type: biochemical; details: NRAS Q61R; read-out: NRAS Q61R FRET data IC50
Chain of NRAS Q61R (P01111 whole entry Q61R): as the sequence (P01111 whole entry Q61K) above, with K61R counted along it
Chain of NRAS Q61R (P62937 whole entry): as the sequence (P62937 whole entry) above
Procedure, shortened: as §1

Compound	EC50 [1] [µM]	IC50 (KRAS Q61H) [µM]	IC50 (NRAS Q61K) [µM]	IC50 (NRAS Q61R) [µM]
C=CC(=O)N1CC[C@H](C(=O)N(C)[C@H](C(=O)N[C@H]2Cc3cc(O)cc(c3)-c3ccc4c(c3)c(c(-c3cccnc3)n4C3CC3)CC(C)(C)COC(=O)[C@@H]3CCCN(N3)C2=O)C(C)C)C1 [Example A160]	< 5	1 to 10	> 10	> 10
C=CC(=O)N1CCO[C@H]2CN(C(=O)N(C)[C@H](C(=O)N[C@H]3CN4CCC=C(C4)c4ccc5c(c4)c(c(-c4cccnc4[C@H](C)OC)n5CC)CC(C)(C)COC(=O)[C@@H]4CCCN(N4)C3=O)C(C)C)C[C@H]21 [Example A552]	< 5	0.1 to 1	1 to 10	1 to 10
C=CC(=O)N1CC[C@H](C(=O)N(C)[C@H](C(=O)N[C@H]2Cc3nsc(n3)-c3ccc4c(c3)c(c(-c3cccnc3[C@H](C)OC)n4CC)CC(C)(C)COC(=O)[C@@H]3CCCN(N3)C2=O)C(C)C)C1 (atropisomer, axis not shown) [Example A694]	< 5	0.1 to 1	0.1 to 1	1 to 10
C=CC(=O)N1CCO[C@H]2CN(C(=O)N(C)[C@H](C(=O)N[C@H]3Cc4cccc(c4)-c4ccc5c(c4)c(c(-c4cccnc4[C@H](C)OC)n5CC)CC(C)(C)COC(=O)C4CCCN(N4)C3=O)C(C)C)C[C@H]21 (some centres unmarked) [Example A610]	< 5	0.1 to 1	0.1 to 1	0.1 to 1
C=CC(=O)N1CC[C@H](C(=O)N(C)[C@H](C(=O)N[C@H]2Cc3cc(O)cc(c3)-c3cnc4c(c3)c(c(-c3ccccc3CCOC)n4CC)CC(C)(C)COC(=O)[C@@H]3CCCN(N3)C2=O)C(C)C)C1 [Example A210]	< 5	1 to 10	1 to 10	> 10

Results, then the molecule that gave them:

EC50 [1] [µM]	IC50 (KRAS Q61H) [µM]	IC50 (NRAS Q61K) [µM]	IC50 (NRAS Q61R) [µM]	Compound
< 5	0.01 to 0.1	0.01 to 0.1	0.1 to 1	C=CC(=O)N1CC[C@@]2(CCN2C(=O)N(C)[C@H](C(=O)N[C@H]2Cc3nc(cs3)-c3ccc4c(c3)c(c(-c3cccnc3[C@H](C)OC)n4CC)CC(C)(C)COC(=O)C3CCCN(N3)C2=O)N(C)C)C1 (single isomer, unassigned) [Example A661]
< 5	1 to 10	1 to 10	1 to 10	C=CC(=O)N1CC[C@]2(C1)OCN(C(=O)N(C)[C@H](C(=O)N[C@H]1Cc3cccc(n3)-c3ccc4c(c3)c(c(-c3cccnc3[C@H](C)OC)n4CC)CC(C)(C)COC(=O)[C@@H]3CCCN(N3)C1=O)C(C)C)C2=O (atropisomer, axis not shown) [Example A652]
< 5	0.1 to 1	0.1 to 1	0.1 to 1	C=CC(=O)N1CC[C@@H](N(C)C(=O)N(C)[C@H](C(=O)N[C@H]2Cc3nc(cs3)-c3ccc4c(c3)c(c(-c3cccnc3[C@H](C)OC)n4CC(F)(F)F)CC(C)(C)COC(=O)[C@@H]3CCCN(N3)C2=O)C(C)C)C1 (atropisomer, axis not shown) [Example A728]

Source: patent US20230233569A1 (Revolution Medicines, Inc., priority 2020, published 2023)
